Earlier results in patent EP1151755B1, “Pharmaceutical compositions comprising cyclosporin as active ingredient” (Panacea Biotec Limited, priority 2000, dated 2001).

System: normal epithelial tissue and Peyer's patch tissue of guinea pigs
Settings: in vitro; compared to the commercially available drinking solution

factor by which absorption of Cyclosporine was raised: 5-6
Substance: Choleic acid
